Source: patent US20060211761A1, “Hmg-coa-reductase inhibitors” (priority 2002, published 2006)
Where a name gives a salt, the structure may show the parent alone.

target: HMG-CoA reductase; assay: in-vitro HMG-CoA reductase enzyme assay ([14C]mevalonate formation, liver microsomes), Table 1; assay type: biochemical; conditions: preincubated 37° C. 30 minutes, [14C] HMG-CoA substrate
Method: (§1) Res. Comm., 50, 859 (1973).
(§2) HMG-CoA reductase is regarded as a rate-limiting enzyme in cholesterol biosynthesis, catalyzing the following reaction: [^14C]HMG-CoA+2NADPH+2H+[^14C]mevanolate+CoA+2NADP+microsomes, utilizing 2.5 mM [^14C] HMG-CoA as a substrate.
(§3) The reaction was carried out in presence of 100 mM KH2PO4, 20 mM G-6-P, 2.5 mM NADPH, 10 mM EDTA, 5 mM DTT and […], at 37° C. for 15 minutes and quantitating [^14C] mevalonate as an end product.

| Compound | IC50 |
| --- | --- |
| COc1ccc(NC(=O)c2c(-c3ccccc3)c(-c3ccccc3)n(CC[C@@H](O)C[C@@H](O)CC(=O)O)c2C(C)C)c(OC)c1 [S.No. 5, 7-[3-(2.4-dimethoxyphenylcarbamoyl)-4.5-diphenyl-2-(1-methylethyl-pyrrol-1-yl]-3R,5R-dihydroxy-heptanoic acid calcium salt] | 0.0563 nM |
| COc1ccc(NC(=O)c2c(-c3ccccc3)c(-c3ccc(F)cc3)n(CC[C@@H](O)C[C@@H](O)CC(=O)O)c2C2CC2)c(OC)c1 [S.No. 3, 7-[3-(2,4-dimethoxyphenylcarbamoyl)-5-(4-fluorophenyl)-2-(cyclopropyl)-4-phenyl-pyrrol-1-yl]-3R,5R-dihydroxy-heptanoic acid calcium salt] | 0.00948 nM |
| COc1cc(NC(=O)c2c(-c3ccccc3)c(-c3ccc(F)cc3)n(CC[C@@H](O)C[C@@H](O)CC(=O)O)c2C(C)C)cc(OC)c1 [Example 1, 7-[3-(3,5-dimethoxyphenylcarbamoyl)-5-(4-fluorophenyl)-2-(1-methylethyl)4-phenyl-pyrrol-1-yl]-3R,5R-dihydroxy-heptanoic acid calcium salt] | 0.022 nM |

target: HMG CoA Reductase; assay: HMG CoA reductase inhibition, similar experiments with phenylhydroxy compounds of U.S. Pat. No. 5,385,929, Table 2; assay type: biochemical; conditions: compared to atorvastatin
Method: as §1, §2, §3

| IC50 | Compound |
| --- | --- |
| 0.476 nM | CC(C)c1c(C(=O)Nc2ccc(O)cc2)c(-c2ccccc2)c(-c2ccc(F)cc2)n1CC[C@@H](O)C[C@@H](O)CC(=O)O [Para-hydroxyatorvastatin] |
| 0.199 nM | CC(C)c1c(C(=O)Nc2cccc(O)c2)c(-c2ccccc2)c(-c2ccc(F)cc2)n1CCC(O)CC(O)CC(=O)O (stereo not drawn) [Meta-hydroxyatorvastatin] |
| 0.264 nM | CC(C)c1c(C(=O)Nc2ccccc2O)c(-c2ccccc2)c(-c2ccc(F)cc2)n1CC[C@@H](O)C[C@@H](O)CC(=O)O [Ortho-hydroxyatorvastatin] |
